Data as given in US4812562A, “Cephalosporin derivatives” (Taisho Pharmaceutical Co., Ltd., priority 1985, dated 1989).
Converted amounts (≈) assume the structure as drawn. Counter-ions that a name gives are not always drawn. Like-named read-outs stand apart in the source and are kept apart here.

Legend:
[1] = tested on: Escherichia coli NIHJ JC-2; test: MIC by agar plate dilution method, Escherichia coli NIHJ JC-2; type: cell-based; settings: NIHJJC2, inoculum size 10^6 cells/ml
Procedure: (§1) Subsequently, there were tested the minimal inhibitory concentration (MIC) of the compounds of the present invention against various bacteria and the concentration of the compound in blood after oral administration to rats, and the results are shown.
(§2) The antibacterial activities of the compound of the present invention against various bacteria (inoculum size: 10^6 cells/ml) were tested by the agar plate dilution method, and the results are shown in the following Table 1.

[2] = tested on: Klebsiella pneumoniae T 25; test: MIC by agar plate dilution method, Klebsiella pneumoniae T 25; type: cell-based; settings: T25, inoculum size 10^6 cells/ml
Procedure: as §1, §2

[3] = tested on: Morganella morganii IID 602; test: MIC by agar plate dilution method, Morganella morganii IID 602; type: cell-based; settings: IID602
Procedure: as §1, §2

[4] = tested on: Serratia marcescens IID 618; test: MIC by agar plate dilution method, Serratia marcescens IID 618; type: cell-based; settings: IID618
Procedure: as §1, §2

[5] = tested on: Staphylococcus aureus FDA 209P-JC; test: MIC by agar plate dilution method, Staphylococcus aureus FDA 209P-JC; type: cell-based; settings: FDA209P, inoculum size 10^6 cells/ml
Procedure: as §1, §2

[6] = tested on: Bacillus cereus S 1101; test: MIC by agar plate dilution method, Bacillus cereus S 1101; type: cell-based; settings: S1101
Procedure: as §1, §2

[7] = concentration of the compound in blood after oral administration to rats; type: in vivo, Male wister rats; settings: rat, 50 mg/kg, bioassay (Escherichia coli SC507)
Procedure: Male wister rats (7 weeks old) were administered orally with the test compound, and the change of the concentration of the compound in blood was measured.
Dosage of the test compound: 50 mg/kg
Quantitative method: Bioassy
(test bacterium: Escherichia coli SC507)

[8] = Morganella morganii IID 602, inoculum size 10^6 cells/ml, read-out: MIC
[9] = Serratia marcescens IID 618, inoculum size 10^6 cells/ml, read-out: MIC
[10] = Bacillus cereus S 1101, inoculum size 10^6 cells/ml, read-out: MIC

SMILES | MIC [1] [µg/mL] | MIC [2] [µg/mL] | MIC [3, 8] [µg/mL] | MIC [4, 9] [µg/mL] | MIC [5] [µg/mL] | MIC [6, 10] [µg/mL] | concentration at 1 h [7] [ng/mL] | concentration at 2 h [7] [ng/mL] | concentration at 4 h [7] [ng/mL] | MIC ([3]; Morganella morganii) [µg/mL] | MIC ([4]; Serratia marcescens) [µg/mL] | MIC ([6]; Bacillus cereus) [µg/mL]
N#CCSC1=C(C(=O)O)N2C(=O)[C@@H](NC(=O)/C(=N\OCC(=O)O)c3csc(N)n3)[C@H]2SC1 [A] | 1.56 (≈ 3.13 µM) | 25 (≈ 50.1 µM) | < 0.1 | 0.78 (≈ 1.56 µM) | 6.25 (≈ 12.5 µM) | 0.2 (≈ 0.401 µM) | 28700 | 19500 | 4300 | – | – | –
COCCSC1=C(C(=O)O)N2C(=O)[C@@H](NC(=O)/C(=N\OCC(=O)O)c3csc(N)n3)[C@H]2SC1 [B] | 0.78 (≈ 1.51 µM) | 6.25 (≈ 12.1 µM) | ≤ 0.1 | 1.56 (≈ 3.01 µM) | 25 (≈ 48.3 µM) | 0.39 (≈ 0.754 µM) | – | – | – | – | – | –
Nc1nc(/C(=N/OCC(=O)O)C(=O)N[C@@H]2C(=O)N3C(C(=O)O)=C(SCCF)CS[C@H]23)cs1 [C] | 1.56 (≈ 3.09 µM) | 25 (≈ 49.5 µM) | < 0.1 | 1.56 (≈ 3.09 µM) | 6.25 (≈ 12.4 µM) | 0.2 (≈ 0.396 µM) | 25600 | 9100 | 4000 | – | – | –
NCCCSC1=C(C(=O)O)N2C(=O)[C@@H](NC(=O)/C(=N\OCC(=O)O)c3csc(N)n3)[C@H]2SC1 [D] | 0.78 (≈ 1.51 µM) | 3.13 (≈ 6.06 µM) | 0.39 (≈ 0.755 µM) | 0.39 (≈ 0.755 µM) | 6.25 (≈ 12.1 µM) | 0.2 (≈ 0.387 µM) | 11900 | 16600 | 15400 | – | – | –
Nc1nc(/C(=N/OCC(=O)O)C(=O)N[C@@H]2C(=O)N3C(C(=O)O)=C(SCc4ccccn4)CS[C@H]23)cs1 [E] | 0.39 (≈ 0.708 µM) | 1.56 (≈ 2.83 µM) | ≤ 0.1 | 0.78 (≈ 1.42 µM) | 12.5 (≈ 22.7 µM) | 0.39 (≈ 0.708 µM) | – | – | – | – | – | –
NC(=O)CCSC1=C(C(=O)O)N2C(=O)[C@@H](NC(=O)/C(=N\OCC(=O)O)c3csc(N)n3)[C@H]2SC1 [F] | 1.56 (≈ 2.94 µM) | 12.5 (≈ 23.6 µM) | 0.1 (≈ 0.188 µM) | 0.78 (≈ 1.47 µM) | 12.5 (≈ 23.6 µM) | 0.2 (≈ 0.377 µM) | – | – | – | – | – | –
NC(=O)OCCSC1=C(C(=O)O)N2C(=O)[C@@H](NC(=O)/C(=N\OCC(=O)O)c3csc(N)n3)[C@H]2SC1 [G, 7β-{α-(2-aminothiazole-4-yl)-α-[(Z)-carboxymethoxyimino]acetamido}-3-(2-carbamoyloxy)ethylthio-3-cephem-4-carboxylic acid sodium salt] | 0.39 | 6.25 | ≤ 0.1 | 0.78 | 12.5 | 0.2 | – | – | – | – | – | –
CSC1=C(C(=O)O)N2C(=O)[C@@H](NC(=O)/C(=N\OCC(=O)O)c3csc(N)n3)[C@H]2SC1 [XX, 7{(2-aminothiazole-4-yl)-[(Z)carboxy-methoxyimino]acetamido3-methylthio-3cephem-4-carboxylic acid sodium salt, reference compound] | 1.56 | 25 | 0.39 | 1.56 | 50 | 0.78 | – | – | – | – | – | –
CC1=C(C(=O)O)N2C(=O)[C@@H](NC(=O)[C@H](N)c3ccccc3)[C@H]2SC1 [YY, Cefalexin, reference compound] | – | – | – | – | 0.78 (≈ 2.25 µM) | – | – | – | – | 200 (≈ 576 µM) | > 400 | ≤ 0.1
